In US9132103B2, “Disinfecting agent comprising eugenol, terpineol and thymol” (Conopco, Inc., priority 2009, dated 2015):

Test system: E. coli ATCC 10536
Experiment: Bacterial kill after 15 seconds of contact (viable E. coli count by neutralization, serial dilution and plating)
Assay type: cell-based
Conditions: log10 of viable E. coli remaining after 15 seconds of contact; about 10^7 cells; water carrier; Table 2
Description: About 10^7 bacterial cells (E. coli ATCC 10536) were taken in a test tube and contacted with various compositions for a period of 15 seconds. Bacteria were taken out after 15 seconds of contact and presence of viable cells was determined by neutralization of the antimicrobial, serial dilution and plating on agar plates. The data is presented in Table-1 as log (Viable E. Coli) which is the log10 of the number of viable E. coli remaining after 15 seconds of contact. Thus if 10^4 remained, log (Viable E. coli) is 4.
The data in Table-1 is an average result of four experiments.
Various compositions as shown in Table-2 were prepared using the same procedure as used for examples 1 to 3 and the antibacterial efficacy was evaluated using the same procedure as used to evaluate Examples 1 to 3. The data on antibacterial efficacy is represented in Table-2.
Compositions as summarized in Table-3 were prepared using a similar procedure as used for Examples 1 to 3 and the antibacterial efficacy was evaluated using a procedure similar to that used for Examples 1 to 3.
The various compositions were diluted with water in a ratio of composition:water of 1:400 and then tested for antibacterial efficacy. The procedure used was similar to that used for Examples 1 to 3.
Soap bar compositions were prepared as per conventional procedure for preparing milled and plodded soap bars. […]

Compound	Log (Viable E. coli)
Cc1ccc(C(C)C)c(O)c1 [Example 6, Thymol]	6.5
Terpineol [Example 7]	6.5
